How the values were obtained:
[1] = 100 kPa, Liquid, Frequency=3 MHz, Linear variable-path acoustic interferometer
[2] = xn = mol fraction of the nth substance listed; conditions: 100 kPa, Liquid; for speed of sound: Frequency=3 MHz, Linear variable-path acoustic interferometer; for mass density: Pycnometric method

N#Cc1ccccc1 [benzonitrile]
[1]
Conditions	speed of sound [m/s]
293.15 K	1436.9
298.15 K	1418.2
303.15 K	1400.7
308.15 K	1384
313.15 K	1368.2
318.15 K	1352.9

N#Cc1ccccc1 [benzonitrile] + C=C(C)C(=O)OCC
[2], x1 = 1
Conditions	mass density [kg/m3]	speed of sound [m/s]
293.15 K	1003.99	1436.9
298.15 K	1000.32	1418.2
303.15 K	996.65	1400.7
308.15 K	992.98	1384
313.15 K	989.31	1368.2
318.15 K	985.64	1352.9

C=C(C)C(=O)OC [methyl methacrylate] + N#Cc1ccccc1
[2], x2 = 0
Conditions	mass density [kg/m3]	speed of sound [m/s]
293.15 K	943.38	1200.5
298.15 K	937.64	1183.6
303.15 K	931.9	1168.5
308.15 K	926.16	1152.6
313.15 K	920.42	1135.4
318.15 K	914.67	1118.3

N#Cc1ccccc1 [benzonitrile] + C=C(C)C(=O)OCCCC
[2], x1 = 1
Conditions	mass density [kg/m3]	speed of sound [m/s]
293.15 K	1003.99	1436.9
298.15 K	1000.32	1418.2
303.15 K	996.65	1400.7
308.15 K	992.98	1384
313.15 K	989.31	1368.2
318.15 K	985.64	1352.9

Reference: the NIST ThermoML archive (doi:10.1016/j.jct.2018.12.031)
